Reference: patent US8324390B2, “Tetrazole-substituted anthranilamides as pesticides” (Bayer CropScience AG, priority 2008, dated 2012)
Read-outs that look alike come from different tables or passages of the source.

How the values were obtained:
[1] = log P determination by HPLC (EEC Directive 79/831 Annex V.A8); format: physicochemical
Description: The measurements were carried out using an Agilent 1100 LC system with a 50*4.6 Zorbax Eclipse C18 1.8 μm column (oven temperature 55° C., flow rate 2.0 ml/min).
The following mobile phases were used:
Mobile phase A: acetonitrile+1000 μl of formic acid/l
Mobile phase B: Millipore water+900 μl of formic acid/l

[2] = test system: green peach aphid (Myzus persicae); assay: Myzus test (MYZUPE spray treatment); format: in vivo; conditions: Myzus persicae, foliar, read-out: effect in % (aphids killed)
Excerpt: Solvent: 78 parts by weight of acetone
(§1) Solvent: 78.0 parts by weight of acetone

[3] = test system: larvae of the mustard beetle (Phaedon cochleariae); assay: Phaedon test (PHAECO spray treatment); conditions: Phaedon cochleariae, in Brassica rapa, foliar, read-out: effect in % (beetle larvae killed)
[4] = test system: caterpillars of the armyworm (Spodoptera frugiperda); assay: Spodoptera frugiperda test (SPODFR spray treatment); format: in vivo; conditions: Spodoptera frugiperda, foliar, read-out: effect in % (caterpillars killed)
Excerpt: as §1

[5] = reversed-phase HPLC, Zorbax Eclipse C18 column, by HPLC according to EEC Directive 79/831 Annex V.A8, read-out: log P
[6] = application rate 100 g/ha, Chinese cabbage leaf discs
[7] = application rate 100 g/ha, maize leaf discs
[8] = reversed-phase HPLC, Zorbax Eclipse C18 column, determined by HPLC according to EEC Directive 79/831 Annex V.A8, read-out: log P

| chromatographic logP [1, 5] | chromatographic logP [1, 8] | SMILES | pest or weed control at 100 g/ha [2, 6] | pest or weed control at 100 g/ha [3] | pest or weed control at 100 g/ha [4, 7] | chromatographic logP ([1]; log P) | pest or weed control at 100 g/ha ([2]; in Brassica rapa) | pest or weed control at 100 g/ha ([4]; in Zea mays) |
| --- | --- | --- | --- | --- | --- | --- | --- | --- |
| 4 |  | Cc1cc(Cl)cc(C(=O)NC(C)(C)C)c1NC(=O)c1cc(Cn2nnc(C(F)(F)F)n2)nn1-c1ncccc1C(F)(F)F [Example 224] | ≥ 80% | ≥ 80% | ≥ 80% |  |  |  |
|  |  | Cc1cc(C#N)cc(C(=O)NC(C)C2CC2)c1NC(=O)c1cc(Cn2nnc(C(F)F)n2)nn1-c1ncccc1Cl (stereo not shown) [Example 263] |  | ≥ 80% |  | 2.86 | ≥ 80% | ≥ 80% |
| 3.09 |  | CNC(=O)c1cc(C#N)cc(C)c1NC(=O)c1cc(Cn2nnc(C(F)(F)F)n2)nn1-c1ccccc1Cl [Example 310] | ≥ 80% | ≥ 80% | ≥ 80% |  |  |  |
|  |  | Cc1cc(C#N)cc(C(=O)NOCC2CC2)c1NC(=O)c1cc(Cn2nnc(C(F)(F)F)n2)nn1-c1ncccc1Cl [Example 397] |  | ≥ 80% |  | 2.96 | ≥ 80% | ≥ 80% |
|  |  | CNC(=O)c1cc(Br)cc(C)c1NC(=O)c1cc(Cn2nnnc2C(F)(F)F)nn1-c1ncccc1Cl [Example 170] |  | ≥ 80% |  | 2.72 | ≥ 80% | ≥ 80% |
|  |  | CNC(=O)c1cc(C)cc(C)c1NC(=O)c1cc(Cn2nnc(C(F)(F)F)n2)nn1-c1ncccc1Cl [Example 78] |  | ≥ 80% |  | 2.81 | ≥ 80% | ≥ 80% |
|  |  | Cc1cc(C#N)cc(C(=O)NC(C)C2CC2)c1NC(=O)c1cc(Cn2nnnc2C(F)(F)C(F)(F)F)nn1-c1ncccc1Cl (stereo not shown) [Example 203] |  | ≥ 80% |  | 3.48 | ≥ 80% | ≥ 80% |
|  | 3.47 | Cc1cc(C#N)cc(C(=O)NC(C)(C)C)c1NC(=O)c1cc(Cn2nnnc2C(F)(F)C(F)(F)F)nn1-c1ncccc1Br [Example 518] | ≥ 80% | ≥ 80% | ≥ 80% |  |  |  |
|  | 3.25 | Cc1cc(C#N)cc(C(=O)NCC2CC2)c1NC(=O)c1cc(Cn2nnnc2C(F)(F)F)nn1-c1ccccc1Cl [Example 526] | ≥ 80% | ≥ 80% | ≥ 80% |  |  |  |
|  |  | CSC[C@H](C)NC(=O)c1cc(Cl)cc(Cl)c1NC(=O)c1cc(Cn2nnc(C(F)(F)C(F)(F)F)n2)nn1-c1ncccc1Cl [Example 154] |  | ≥ 80% |  | 4.02 | ≥ 80% | ≥ 80% |
|  |  | N#CCNC(=O)c1cc(Cl)cc(Cl)c1NC(=O)c1cc(Cn2nnc(C(F)(F)F)n2)nn1-c1ncccc1Cl [Example 59] |  | ≥ 80% |  | 2.92 | ≥ 80% | ≥ 80% |
|  | 2.64 | Cc1cc(Cl)cc(C(=O)NCC#N)c1NC(=O)c1cc(Cn2nnnc2C(F)(F)F)nn1-c1ncccc1Br [Example 486] | ≥ 80% | ≥ 80% | ≥ 80% |  |  |  |
|  |  | Cc1cc(F)cc(C(=O)NC2CC2)c1NC(=O)c1cc(Cn2nnc(C(F)(F)F)n2)nn1-c1ncccc1Cl [Example 27] |  | ≥ 80% |  | 2.87 | ≥ 80% | ≥ 80% |
|  |  | Cc1cc(C#N)cc(C(=O)NC2CCC2)c1NC(=O)c1cc(Cn2nnc(C(F)(F)F)n2)nn1-c1ncccc1Cl [Example 24] |  | ≥ 80% |  | 3.18 | ≥ 80% | ≥ 80% |
|  |  | CSC[C@H](C)NC(=O)c1cc(Cl)cc(Cl)c1NC(=O)c1cc(Cn2nnc(C(F)(F)F)n2)nn1-c1ncccc1Cl [Example 64] |  | ≥ 80% |  | 3.62 | ≥ 80% | ≥ 80% |
| 3.6 |  | Cc1cc(C#N)cc(C(=O)NC(C)C)c1NC(=O)c1cc(Cn2nnc(C(F)(F)F)n2)nn1-c1ccccc1Cl [Example 341] | ≥ 80% | ≥ 80% | ≥ 80% |  |  |  |
|  |  | Cc1cc(C#N)cc(C(=O)NC2CC2)c1NC(=O)c1cc(Cn2nnc(C(F)F)n2)nn1-c1ncccc1Cl [Example 264] |  | ≥ 80% |  | 2.39 | ≥ 80% | ≥ 80% |

| chromatographic logP [1, 5] | chromatographic logP [1, 8] | SMILES | pest or weed control at 100 g/ha [2, 6] | pest or weed control at 100 g/ha [3] | pest or weed control at 100 g/ha [4, 7] | chromatographic logP ([1]; log P) | pest or weed control at 100 g/ha ([2]; in Brassica rapa) | pest or weed control at 100 g/ha ([4]; in Zea mays) |
| --- | --- | --- | --- | --- | --- | --- | --- | --- |
|  |  | Cc1cc(C#N)cc(C(=O)NCCC(F)(F)F)c1NC(=O)c1cc(Cn2nnc(C(F)(F)F)n2)nn1-c1ncccc1Cl [Example 159] |  | ≥ 80% |  | 3.22 | ≥ 80% | ≥ 80% |
|  |  | N#CCNC(=O)c1cc(Cl)cc(Cl)c1NC(=O)c1cc(Cn2nnc(C(F)F)n2)nn1-c1ncccc1Cl [Example 290] |  | ≥ 80% |  | 2.48 | ≥ 80% | ≥ 80% |
|  | 2.95 | Cc1cc(C#N)cc(C(=O)NC2CC2)c1NC(=O)c1cc(Cn2nnnc2C(F)(F)F)nn1-c1ccccc1Cl [Example 525] | ≥ 80% | ≥ 80% | ≥ 80% |  |  |  |
|  |  | Cc1cc(C#N)cc(C(=O)NC(C)C2CC2)c1NC(=O)c1cc(Cn2nnc(C(F)(F)C(F)(F)F)n2)nn1-c1ncccc1Cl (stereo not shown) [Example 134] |  | ≥ 80% |  | 3.84 | ≥ 80% | ≥ 80% |
|  |  | Cc1cc(C#N)cc(C(=O)NCC(F)F)c1NC(=O)c1cc(Cn2nnc(C(F)(F)F)n2)nn1-c1ncccc1Cl [Example 91] |  | ≥ 80% |  | 2.91 | ≥ 80% | ≥ 80% |
|  |  | Cc1cc(C#N)cc(C(=O)NCC2CC2)c1NC(=O)c1cc(Cn2nnc(C(F)(F)F)n2)nn1-c1ncccc1Cl [Example 23] |  | ≥ 80% |  | 3.13 | ≥ 80% | ≥ 80% |
|  |  | Cc1cc(Cl)cc(C(=O)NC2CC2)c1NC(=O)c1cc(Cn2nnnc2C(F)(F)F)nn1-c1ncccc1Cl [Example 163] |  | ≥ 80% |  | 2.89 | ≥ 80% | ≥ 80% |
|  |  | Cc1cc(C#N)cc(C(=O)NCc2ccco2)c1NC(=O)c1cc(Cn2nnc(C(F)(F)F)n2)nn1-c1ncccc1Cl [Example 77] |  | ≥ 80% |  | 3.14 | ≥ 80% | ≥ 80% |
|  |  | Cc1cc(C#N)cc(C(=O)NC2CC2)c1NC(=O)c1cc(Cn2nnc(C(F)(F)C(F)(F)F)n2)nn1-c1ncccc1Cl [Example 214] |  | ≥ 80% |  | 3.26 | ≥ 80% | ≥ 80% |
|  | 2.46 | CNC(=O)c1cc(C#N)cc(C)c1NC(=O)c1cc(Cn2nnc(C(F)(F)F)n2)nn1-c1ncccc1F [Example 405] | ≥ 80% | ≥ 80% | ≥ 80% |  |  |  |
| 2.88 |  | CCNC(=O)c1cc(C#N)cc(C)c1NC(=O)c1cc(Cn2nnc(C(F)(F)F)n2)nn1-c1ncccc1Br [Example 322] | ≥ 80% | ≥ 80% | ≥ 80% |  |  |  |
|  |  | Cc1cc(C#N)cc(C(=O)NC(C)C)c1NC(=O)c1cc(C(C)n2nnc(C(F)(F)F)n2)nn1-c1ncccc1Cl (stereo not shown) [Example 438] |  | ≥ 80% |  | 3.35 | ≥ 80% | ≥ 80% |
|  |  | Cc1cc(C)c(NC(=O)c2cc(Cn3nnnc3C(F)(F)F)nn2-c2ncccc2Cl)c(C(=O)NC2CC2)c1 [Example 180] |  | ≥ 80% |  | 2.71 | ≥ 80% | ≥ 80% |
|  |  | Cc1cc(I)cc(C(N)=O)c1NC(=O)c1cc(Cn2nnc(C(F)(F)F)n2)nn1-c1ncccc1Cl [Example 67] |  | ≥ 80% |  | 2.95 | ≥ 80% | ≥ 80% |
|  | 2.43 | Cc1cc(Cl)cc(C(N)=O)c1NC(=O)c1cc(Cn2nnnc2C(F)(F)F)nn1-c1ncccc1Br [Example 481] | ≥ 80% | ≥ 80% | ≥ 80% |  |  |  |
|  |  | Cc1cc(Cl)cc(C(=O)NC(C)(C)C)c1NC(=O)c1cc(C(C)n2nnnc2C(F)(F)F)nn1-c1ncccc1Cl (stereo not shown) [Example 511] |  | ≥ 80% |  | 3.75 | ≥ 80% | ≥ 80% |
|  |  | Cc1cc(C#N)cc(C(=O)NC2CCC2)c1NC(=O)c1cc(Cn2nnc(C(F)F)n2)nn1-c1ncccc1Cl [Example 270] |  | ≥ 80% |  | 2.7 | ≥ 80% | ≥ 80% |
